Results published in patent publication EP2970215B1, “PYRROLIDINE DERIVATIVES, PHARMACEUTICAL COMPOSITIONS CONTAINING THEM, AND THEIR USE IN THERAPY” (AbbVie Deutschland GmbH & Co. KG, priority 2013, dated 2014).

Biological target: T1, human GlyT1c transporter (Homo sapiens, UniProt P48067)
T1 construct: expressed in transfected cells; host or cells: CHO cells (recombinant; line hGlyT1c_5_CHO is named for the uptake assay)
T1 sequence (P48067 1-706): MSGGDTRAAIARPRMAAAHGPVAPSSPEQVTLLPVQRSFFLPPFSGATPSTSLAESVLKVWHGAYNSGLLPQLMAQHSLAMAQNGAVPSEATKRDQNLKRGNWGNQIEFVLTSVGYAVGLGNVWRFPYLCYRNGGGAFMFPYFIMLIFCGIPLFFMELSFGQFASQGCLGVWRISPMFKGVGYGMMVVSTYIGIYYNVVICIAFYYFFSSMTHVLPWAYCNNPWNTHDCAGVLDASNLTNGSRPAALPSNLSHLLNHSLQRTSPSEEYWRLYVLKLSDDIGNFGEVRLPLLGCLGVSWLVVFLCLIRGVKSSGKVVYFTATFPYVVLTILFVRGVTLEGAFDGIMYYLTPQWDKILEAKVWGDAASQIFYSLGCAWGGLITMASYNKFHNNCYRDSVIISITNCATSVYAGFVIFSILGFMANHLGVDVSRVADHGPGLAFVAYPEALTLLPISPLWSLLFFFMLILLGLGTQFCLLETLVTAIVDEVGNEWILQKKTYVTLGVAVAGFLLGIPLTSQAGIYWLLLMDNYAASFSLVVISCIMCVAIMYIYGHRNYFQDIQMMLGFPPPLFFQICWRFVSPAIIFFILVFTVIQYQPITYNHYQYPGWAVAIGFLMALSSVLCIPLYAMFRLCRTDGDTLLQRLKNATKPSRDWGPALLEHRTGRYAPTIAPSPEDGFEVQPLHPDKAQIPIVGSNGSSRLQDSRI
Assay: Radioligand binding assay using recombinant CHO cell membranes expressing human GlyT1
Settings: radioligand binding to human GlyT1c transporter-expressing membranes
Text: 2. Radioligand binding assays using recombinant CHO cell membranes expressing human GlyT1: […]

Ki [nM] | Structure (SMILES)
≤ 10000 | Cn1cnc(S(=O)(=O)N2C[C@@H](Nc3ccc(F)cc3)[C@H](c3cccc(F)c3)C2)c1 (relative stereo) [Example 187, trans-4-(3-fluorophenyl)-N-(4-fluorophenyl)-1-[(1-methyl-1H-imidazol-4-yl)sulfonyl]pyrrolidin-3-amine]
≤ 100 | Cn1cnc(S(=O)(=O)N2C[C@@H](Nc3cccc(Cl)c3)[C@H](c3cccc(F)c3)C2)c1 (relative stereo) [Example 188, trans-N-(3-chlorophenyl)-4-(3-fluorophenyl)-1-[(1-methyl-1H-imidazol-4-yl)sulfonyl]pyrrolidin-3-amine]
≤ 100 | Cn1cnc(S(=O)(=O)N2C[C@@H](Nc3cccc(C(F)(F)F)c3)[C@H](c3cccc(F)c3)C2)c1 (relative stereo) [Example 189, trans-4-(3-fluorophenyl)-1-[(1-methyl-1H-imidazol-4-yl)sulfonyl]-N-[3-(trifluoromethyl)phenyl]pyrrolidin-3-amine]
≤ 1000 | Cn1cnc(S(=O)(=O)N2C[C@@H](Nc3ccc(C(F)(F)F)cc3)[C@H](c3cccc(F)c3)C2)c1 (relative stereo) [Example 190, trans-4-(3-fluorophenyl)-1-[(1-methyl-1H-imidazol-4-yl)sulfonyl] -N-[4-(trifluoromethyl)phenyl]pyrrolidin-3-amine]
≤ 10000 | Cn1cnc(S(=O)(=O)N2C[C@@H](Nc3ccncc3)[C@H](c3cccc(F)c3)C2)c1 (relative stereo) [Example 191, N-{trans-4-(3-fluorophenyl)-1-[(1-methyl-1H-imidazol-4-yl)sulfonyl]pyrrolidin-3-yl}pyridin-4-amine]
≤ 1000 | Cn1cnc(S(=O)(=O)N2C[C@@H](Nc3ccc(Cl)c(Cl)c3)[C@H](c3cccc(F)c3)C2)c1 (relative stereo) [Example 192, trans-N-(3,4-dichlorophenyl)-4-(3-fluorophenyl)-1-[(1-methyl-1H-imidazol-4-yl)sulfonyl]pyrrolidin-3-amine]
≤ 10000 | Cn1cnc(S(=O)(=O)N2C[C@@H](Nc3ccc(Cl)c(F)c3)[C@H](c3cccc(F)c3)C2)c1 (relative stereo) [Example 193, trans-N-(4-chloro-3-fluorophenyl)-4-(3-fluorophenyl)-1-[(1-methyl-1H-imidazol-4-yl)sulfonyl]pyrrolidin-3-amine]
≤ 100 | Cn1cnc(S(=O)(=O)N2C[C@@H](Nc3ccc(F)c(Cl)c3)[C@H](c3cccc(F)c3)C2)c1 (relative stereo) [Example 194, trans-N-(3-chloro-4-fluorophenyl)-4-(3-fluorophenyl)-1-[(1-methyl-1H-imidazol-4-yl)sulfonyl]pyrrolidin-3-amine]
≤ 10000 | Cn1cnc(S(=O)(=O)N2C[C@@H](Nc3cccc(C(F)(F)F)n3)[C@H](c3cccc(F)c3)C2)c1 (relative stereo) [Example 195, N-{trans-4-(3-fluorophenyl)-1-[(1-methyl-1H-imidazol-4-yl)sulfonyl]pyrrolidin-3-yl} -6-(trifluoromethyl)pyridin-2-amine]
≤ 10000 | Cn1cnc(S(=O)(=O)N2C[C@@H](Nc3cncc(C(F)(F)F)c3)[C@H](c3cccc(F)c3)C2)c1 (relative stereo) [Example 196, N-{trans-4-(3-fluorophenyl)-1-[(1-methyl-1H-imidazol-4-yl)sulfonyl]pyrrolidin-3-yl}-5-(trifluoromethyl)pyridin-3-amine]
≤ 1000 | Cn1cnc(S(=O)(=O)N2C[C@@H](Nc3ccc(F)c(F)c3)[C@H](c3cccc(F)c3)C2)c1 (relative stereo) [Example 197, trans-N-(3,4-difluorophenyl)-4-(3-fluorophenyl)-1-[(1-methyl-1H-imidazol-4-yl)sulfonyl]pyrrolidin-3-amine]
≤ 1000 | Cn1cnc(S(=O)(=O)N2C[C@@H](Nc3ccccc3)[C@H](c3ccccc3F)C2)c1 (relative stereo) [Example 198, trans-4-(2-fluorophenyl)-1-[(1-methyl-1H-imidazol-4-yl)sulfonyl]-N-phenylpyrrolidin-3-amine]
